{"source": "patent US8680052B1", "about": "“Methods of treating, reducing the incidence of, and/or preventing ischemic events” (The Medicines Company, priority 2013, dated 2014)", "key": {"P2Y12 receptor": {"target": "T1, P2Y12 receptor (Homo sapiens, UniProt Q9H244)", "T1 construct": "from tissue; host or cells: platelets in whole blood of patients", "T1 sequence (Q9H244 whole entry)": "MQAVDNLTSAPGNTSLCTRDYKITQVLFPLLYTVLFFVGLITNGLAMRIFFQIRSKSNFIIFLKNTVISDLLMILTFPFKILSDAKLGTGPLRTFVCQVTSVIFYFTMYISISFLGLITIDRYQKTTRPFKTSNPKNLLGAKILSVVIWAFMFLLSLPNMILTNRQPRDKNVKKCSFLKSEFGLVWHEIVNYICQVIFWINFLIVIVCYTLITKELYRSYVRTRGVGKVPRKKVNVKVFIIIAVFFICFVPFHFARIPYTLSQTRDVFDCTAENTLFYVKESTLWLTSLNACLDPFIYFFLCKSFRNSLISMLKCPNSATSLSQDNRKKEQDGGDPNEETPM", "test": "Example 4: VerifyNow P2Y12 assay, platelet reactivity in PRU", "format": "in vivo", "method": "The study involved 12 patients who met the criteria of being 18-75 years of age, having coronary artery disease (CAD) documented by a previous MI or coronary revascularization, and taking 81 mg of aspirin daily. […] Use of non-steroidal anti-inflammatory agents was discouraged during study participation but not prohibited.\n(§1) Each patient was administered a 30 μg/kg bolus of cangrelor followed immediately by a 2 hr infusion at a rate of 4.0 μg/kg/min. A loading dose of ticagrelor (180 mg) was given after 0.5 hr or 1.25 hr (n=6 for each). Blood for pharmacodynamic platelet function studies was taken after 0.5 or 1.25 hr (corresponding to the time of ticagrelor load, n=6 for each), and then at 1.75, 2, 2.25, 2.5, 2.75, 3, 4, and 5.25 hr. Patients were assigned randomly to receive either 6 (n=6) or 7 (n=6) doses of ticagrelor to be taken every 12 hours following the discontinuation of the infusion of cangrelor. On study day 5, each patient was administered a 30 μg/kg bolus of cangrelor followed immediately by a 2 hr infusion at a rate of 4.0 μg/kg/min. Blood for pharmacodynamic assessment was taken after 1 and 2 hr. Adverse events were queried throughout study participation that ended with a telephone interview performed on study day 10-12.\n(§2) Pharmacodynamic assessment included light transmission aggregometry (LTA), VerifyNow® P2Y12 assay, vasodilator-stimulated phosphoprotein (VASP) index, and platelet activation measured with the use of flow cytometry. Assessment of LTA, VerifyNow®, and platelet activation with the use of flow cytometry was performed within 30 min of blood being taken. In the case of flow cytometry, samples were processed to fixation and then batched for analysis. For VASP, index samples were batched and processed as recommended by the vendor within 2 h of blood being taken. This approach limited the time from fixation of VASP index to flow analysis to less than 1 h.\n(§3) LTA induced by 5 μM and 20 μM adenosine diphosphate (ADP) was quantified ex vivo (i.e. in non-adjusted platelet rich plasma). Platelet-poor plasma was set as 100% aggregation, and both maximal (peak) and terminal (at 300 s) aggregation were measured with a PAP4 aggregometer (BioData, Horsham, Pa.). VerifyNow® P2Y12 assay (Accumetrics Inc, San Diego, Calif.) that measures the effects of drugs on the P2Y12 receptor by activating platelets with prostaglandin El in addition to ADP was used in accordance with the instructions provided by the manufacturer. Platelet reactivity was expressed in P2Y12 reaction units (PRU). Activation of platelets was identified with the use of flow cytometry as previously described.^17. And to determine the VASP index, a commercially available kit (Diagnostica Stago, Inc, Parsippany NJ) was used. ^17 Schneider D J, Sobel B E. Streamlining the design of promising clinical trials: in-vitro testing of antithrombotic regimens and multiple agonists of platelet activation. Coron Artery Dis. 2009; 20:175-8."}, "platelets": {"system": "platelets", "test": "Example 4: platelet activation measured by flow cytometry", "format": "in vivo, human", "conditions": "P-selectin expression, 1 μM ADP", "method": "(§4) The study involved 12 patients who met the criteria of being 18-75 years of age, having coronary artery disease (CAD) documented by a previous MI or coronary revascularization, and taking 81 mg of aspirin daily. […] Prohibited concomitant medications included strong and potent CYP3A inhibitors, simvastatin and lovastatin at doses more than 40 mg/day, omeprazole or esomeprazole, and digoxin. Use of non-steroidal anti-inflammatory agents was discouraged during study participation but not prohibited.\nas §1, §2, §3"}, "[1]": {"system": "vasodilator-stimulated phosphoprotein (VASP)", "test": "Example 4: vasodilator-stimulated phosphoprotein (VASP) index", "format": "in vivo, human", "method": "as §4, §1, §2, §3"}, "[2]": {"conditions": "Study Day 1, 1.75 h, Ticagrelor at 0.5 hr"}, "[3]": {"conditions": "Study Day 1, 1.75 h, Ticagrelor at 1.25 hr"}, "[4]": {"conditions": "Study Day 1, 2.0 h, Ticagrelor at 0.5 hr"}, "[5]": {"conditions": "Study Day 1, 2.0 h, Ticagrelor at 1.25 hr"}, "[6]": {"conditions": "Study Day 1, reference 0.5/1.25 h, All"}, "[7]": {"conditions": "Study Day 1, reference 0.5/1.25 h, Ticagrelor at 0.5 hr"}, "[8]": {"conditions": "Study Day 1, reference 0.5/1.25 h, Ticagrelor at 1.25 hr"}, "[9]": {"conditions": "Study Day 5, 1.0 h, Ticagrelor 6 doses"}, "[10]": {"conditions": "Study Day 5, 1.0 h, Ticagrelor 7 doses"}, "[11]": {"conditions": "Study Day 5, 2.0 h, Ticagrelor 6 doses"}, "[12]": {"conditions": "Study Day 5, 2.0 h, Ticagrelor 7 doses"}}}
{"smiles": "CSCCNc1nc(SCCC(F)(F)F)nc2c1ncn2[C@@H]1O[C@H](COP(=O)(O)OP(=O)(O)C(Cl)(Cl)P(=O)(O)O)[C@@H](O)[C@H]1O", "note": "[Cangrelor, cangrelor]", "values": [{"measurement": "VerifyNow IPR", "setting": "P2Y12 receptor; Study Day 1, 1.75 h, All", "value": "99 ± 1"}, {"measurement": "VerifyNow PRU", "setting": "P2Y12 receptor; Study Day 1, 1.75 h, All", "value": "3.8 ± 2.6", "unit": "PRU"}, {"measurement": "VerifyNow IPR", "setting": "P2Y12 receptor; [2]", "value": "99 ± 1"}, {"measurement": "VerifyNow PRU", "setting": "P2Y12 receptor; [2]", "value": "3.8 ± 2.6", "unit": "PRU"}, {"measurement": "VerifyNow IPR", "setting": "P2Y12 receptor; [3]", "value": "99 ± 1"}, {"measurement": "VerifyNow PRU", "setting": "P2Y12 receptor; [3]", "value": "3.7 ± 2.8", "unit": "PRU"}, {"measurement": "VerifyNow IPR", "setting": "P2Y12 receptor; Study Day 1, 2.0 h, All", "value": "98 ± 3"}, {"measurement": "VerifyNow PRU", "setting": "P2Y12 receptor; Study Day 1, 2.0 h, All", "value": "6.4 ± 7.5", "unit": "PRU"}, {"measurement": "VerifyNow IPR", "setting": "P2Y12 receptor; [4]", "value": "97 ± 2"}, {"measurement": "VerifyNow PRU", "setting": "P2Y12 receptor; [4]", "value": "6.9 ± 4.9", "unit": "PRU"}, {"measurement": "VerifyNow IPR", "setting": "P2Y12 receptor; [5]", "value": "98 ± 4"}, {"measurement": "VerifyNow PRU", "setting": "P2Y12 receptor; [5]", "value": "5.9 ± 9.9", "unit": "PRU"}, {"measurement": "VerifyNow IPR", "setting": "P2Y12 receptor; [6]", "value": "97 ± 3"}, {"measurement": "VerifyNow PRU", "setting": "P2Y12 receptor; [6]", "value": "7.3 ± 9.3", "unit": "PRU"}, {"measurement": "VerifyNow IPR", "setting": "P2Y12 receptor; [7]", "value": "97 ± 4"}, {"measurement": "VerifyNow PRU", "setting": "P2Y12 receptor; [7]", "value": "8.8 ± 12", "unit": "PRU"}, {"measurement": "VerifyNow IPR", "setting": "P2Y12 receptor; [8]", "value": "98 ± 3"}, {"measurement": "VerifyNow PRU", "setting": "P2Y12 receptor; [8]", "value": "5.8 ± 7.3", "unit": "PRU"}, {"measurement": "VerifyNow IPR", "setting": "P2Y12 receptor; Study Day 5, 1.0 h, All", "value": "99 ± 1"}, {"measurement": "VerifyNow PRU", "setting": "P2Y12 receptor; Study Day 5, 1.0 h, All", "value": "3.3 ± 2", "unit": "PRU"}, {"measurement": "VerifyNow IPR", "setting": "P2Y12 receptor; [9]", "value": "99 ± 1"}, {"measurement": "VerifyNow PRU", "setting": "P2Y12 receptor; [9]", "value": "2.8 ± 1.9", "unit": "PRU"}, {"measurement": "VerifyNow IPR", "setting": "P2Y12 receptor; [10]", "value": "98 ± 1"}, {"measurement": "VerifyNow PRU", "setting": "P2Y12 receptor; [10]", "value": "3.9 ± 2.1", "unit": "PRU"}, {"measurement": "VerifyNow IPR", "setting": "P2Y12 receptor; Study Day 5, 2.0 h, All", "value": "98 ± 3"}, {"measurement": "VerifyNow PRU", "setting": "P2Y12 receptor; Study Day 5, 2.0 h, All", "value": "4.5 ± 6.4", "unit": "PRU"}, {"measurement": "VerifyNow IPR", "setting": "P2Y12 receptor; [11]", "value": "99 ± 1"}, {"measurement": "VerifyNow PRU", "setting": "P2Y12 receptor; [11]", "value": "2.4 ± 1.9", "unit": "PRU"}, {"measurement": "VerifyNow IPR", "setting": "P2Y12 receptor; [12]", "value": "97 ± 3"}, {"measurement": "VerifyNow PRU", "setting": "P2Y12 receptor; [12]", "value": "6.5 ± 8.8", "unit": "PRU"}, {"measurement": "Flow Cytometry IPR", "setting": "platelets; Study Day 1, 1.75 h, All", "value": "94 ± 5"}, {"measurement": "Flow Cytometry PR", "setting": "platelets; Study Day 1, 1.75 h, All", "value": "2.5 ± 1"}, {"measurement": "Flow Cytometry IPR", "setting": "platelets; [2]", "value": "96 ± 2"}, {"measurement": "Flow Cytometry PR", "setting": "platelets; [2]", "value": "2 ± 0.6"}, {"measurement": "Flow Cytometry IPR", "setting": "platelets; [3]", "value": "92 ± 7"}, {"measurement": "Flow Cytometry PR", "setting": "platelets; [3]", "value": "3 ± 1.1"}, {"measurement": "Flow Cytometry IPR", "setting": "platelets; Study Day 1, 2.0 h, All", "value": "89 ± 30"}, {"measurement": "Flow Cytometry PR", "setting": "platelets; Study Day 1, 2.0 h, All", "value": "3.8 ± 4.5"}, {"measurement": "Flow Cytometry IPR", "setting": "platelets; [4]", "value": "96 ± 2"}, {"measurement": "Flow Cytometry PR", "setting": "platelets; [4]", "value": "2.3 ± 0.8"}, {"measurement": "Flow Cytometry IPR", "setting": "platelets; [5]", "value": "83 ± 28"}, {"measurement": "Flow Cytometry PR", "setting": "platelets; [5]", "value": "5.3 ± 6.3"}, {"measurement": "Flow Cytometry IPR", "setting": "platelets; [6]", "value": "94 ± 4"}, {"measurement": "Flow Cytometry PR", "setting": "platelets; [6]", "value": "2.8 ± 1.2"}, {"measurement": "Flow Cytometry IPR", "setting": "platelets; [7]", "value": "94 ± 5"}, {"measurement": "Flow Cytometry PR", "setting": "platelets; [7]", "value": "3 ± 1.7"}, {"measurement": "Flow Cytometry IPR", "setting": "platelets; [8]", "value": "94 ± 3"}, {"measurement": "Flow Cytometry PR", "setting": "platelets; [8]", "value": "1.5 ± 0.5"}, {"measurement": "Flow Cytometry IPR", "setting": "platelets; Study Day 5, 1.0 h, All", "value": "92 ± 4"}, {"measurement": "Flow Cytometry PR", "setting": "platelets; Study Day 5, 1.0 h, All", "value": "4.1 ± 2.7"}, {"measurement": "Flow Cytometry IPR", "setting": "platelets; [9]", "value": "91 ± 3"}, {"measurement": "Flow Cytometry PR", "setting": "platelets; [9]", "value": "3.5 ± 1.4"}, {"measurement": "Flow Cytometry IPR", "setting": "platelets; [10]", "value": "93 ± 5"}, {"measurement": "Flow Cytometry PR", "setting": "platelets; [10]", "value": "4.7 ± 3.6"}, {"measurement": "Flow Cytometry IPR", "setting": "platelets; Study Day 5, 2.0 h, All", "value": "95 ± 3"}, {"measurement": "Flow Cytometry PR", "setting": "platelets; Study Day 5, 2.0 h, All", "value": "2.8 ± 1.3"}, {"measurement": "Flow Cytometry IPR", "setting": "platelets; [11]", "value": "93 ± 3"}, {"measurement": "Flow Cytometry PR", "setting": "platelets; [11]", "value": "2.7 ± 1.2"}, {"measurement": "Flow Cytometry IPR", "setting": "platelets; [12]", "value": "96 ± 2"}, {"measurement": "Flow Cytometry PR", "setting": "platelets; [12]", "value": "2.8 ± 1.5"}, {"measurement": "VASP Index VI", "setting": "[1]; Study Day 1, 1.75 h, All", "value": "13 ± 9"}, {"measurement": "VASP Index VI", "setting": "[1]; [2]", "value": "13 ± 9"}, {"measurement": "VASP Index VI", "setting": "[1]; [3]", "value": "13 ± 4"}, {"measurement": "VASP Index VI", "setting": "[1]; Study Day 1, 2.0 h, All", "value": "15 ± 9"}, {"measurement": "VASP Index VI", "setting": "[1]; [4]", "value": "11 ± 7"}, {"measurement": "VASP Index VI", "setting": "[1]; [5]", "value": "19 ± 7"}, {"measurement": "VASP Index VI", "setting": "[1]; [6]", "value": "18 ± 10"}, {"measurement": "VASP Index VI", "setting": "[1]; [7]", "value": "18 ± 13"}, {"measurement": "VASP Index VI", "setting": "[1]; [8]", "value": "19 ± 8"}, {"measurement": "VASP Index VI", "setting": "[1]; Study Day 5, 1.0 h, All", "value": "16 ± 11"}, {"measurement": "VASP Index VI", "setting": "[1]; [9]", "value": "19 ± 14"}, {"measurement": "VASP Index VI", "setting": "[1]; [10]", "value": "12 ± 7"}, {"measurement": "VASP Index VI", "setting": "[1]; Study Day 5, 2.0 h, All", "value": "17 ± 5"}, {"measurement": "VASP Index VI", "setting": "[1]; [11]", "value": "20 ± 3"}, {"measurement": "VASP Index VI", "setting": "[1]; [12]", "value": "14 ± 6"}]}
